The record followed here is patent publication US20250368633A1, “AZEPINE FUSED RING COMPOUND AS RIPK1 INHIBITOR AND USE THEREOF” (ARTIVILA BIOPHARMA, priority 2022, published 2025).

The IC50 is the concentration that inhibits the measured activity by half. What is called EC50 is the concentration needed to bring the measured effect to its halfway point.

Some results are limits rather than exact numbers.

One assay addresses T1, RIPK1 kinase (Homo sapiens, UniProt Q13546).
T1 construct: purchased Promega VA7593
T1 sequence (Q13546 1-671): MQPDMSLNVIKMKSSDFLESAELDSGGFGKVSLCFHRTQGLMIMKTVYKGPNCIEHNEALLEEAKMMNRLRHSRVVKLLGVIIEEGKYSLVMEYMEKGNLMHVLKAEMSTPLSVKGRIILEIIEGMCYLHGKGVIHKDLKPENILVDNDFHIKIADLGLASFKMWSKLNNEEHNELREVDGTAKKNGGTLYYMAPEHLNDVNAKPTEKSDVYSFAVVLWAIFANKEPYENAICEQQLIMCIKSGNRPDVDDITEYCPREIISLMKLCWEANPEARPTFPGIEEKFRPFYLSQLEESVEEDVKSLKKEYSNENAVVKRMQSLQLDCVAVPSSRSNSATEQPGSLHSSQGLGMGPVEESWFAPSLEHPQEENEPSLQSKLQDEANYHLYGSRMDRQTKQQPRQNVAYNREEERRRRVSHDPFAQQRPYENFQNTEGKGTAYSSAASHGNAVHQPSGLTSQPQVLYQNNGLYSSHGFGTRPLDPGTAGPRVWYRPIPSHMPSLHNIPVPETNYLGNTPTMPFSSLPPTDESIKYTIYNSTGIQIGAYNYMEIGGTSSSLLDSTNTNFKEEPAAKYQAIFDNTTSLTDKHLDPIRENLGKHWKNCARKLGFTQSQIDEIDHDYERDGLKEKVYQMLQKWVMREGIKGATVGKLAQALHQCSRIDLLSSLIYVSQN
Kind of assay: In vitro RIPK1 kinase activity IC50 assay (ADP-Glo). The class given is biochemical. Conditions: ATP 10 μM; MBP substrate 100 μg/mL; 8 concentration points; read-out: IC50 range of compounds for RIPK1 kinase activity. The method, then:
RIPK1 kinase activity was assayed using the ADP-Glo assay and RIPK1 kinase reaction system (Promega, catalog number: VA7593). The RIPK1 kinase activity assay was performed according to the Promega kit manual.
The experimental method was briefly described as below. The concentration of RIPK1 kinase in the RIPK1 kinase reaction system was determined by kinase titration and S/B10. The compound was diluted with 1× kinase buffer D (1% DMSO), 1 μL of 1 mM compound DMSO stock solution was added to 19 μL 1× kinase buffer D, and the compound was serially diluted with 1× kinase buffer D at a ratio of 1:5, for a total of 8 concentration points, and a control with the same DMSO volume was set. RIPK1 kinase was diluted with 1× kinase buffer D. 2.5×ATP/substrate was diluted with 1× kinase buffer D. The final concentration of ATP in the kinase reaction system was 10 μM. The final concentration of MBP substrate was 100 μg/mL. 1 μL of diluted compound and 2 μL of diluted RIPK1 kinase were mixed, incubated at room temperature for 15 minutes, 2 μL of 2.5×ATP/substrate was added, mixed, and incubated at room temperature for 1 hour. 5 μL ADP-Glo reagent was added to each well and incubated at room temperature for 1 hour. 10 μL ADP detection reagent was added to each well and incubated at room temperature for another 0.5-1 hour. The chemiluminescent signal was read with a microplate reader and the kinase activity inhibition rate was calculated. IC50 was obtained by fitting the nonlinear regression curve log [inhibitor] vs. response-variable slope (four parameters) in GraphPad Prism.
On the technique in general: In ADP-Glo the light output rises with the ADP produced.

The test system of assay [1] is U937 cells. Kind of assay: Inhibition rate of compound (1 μM) on necroptosis of U937 cells (TSZ-induced, CellTiter-Glo). Format: cell-based. Conditions: TSZ (hTNF-α, SM-164, Z-VAD-FMK) 20 hours. A digest of the protocol:
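Percent inhibition comes from ATP luminescence (CellTiter-Glo), referenced to wells without TSZ and wells with TSZ alone. The compound was added to U937 cells 15 min ahead of a TNF-α/SM-164/Z-VAD-FMK mix, followed by 20 h culture at 37° C, 5% CO2.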

Assay [2] concerns U937 cells. Kind of assay: EC50 of necroptosis inhibition in U937 cells (TSZ-induced, CellTiter-Glo). Format: cell-based. Conditions: Homo sapiens, U-937; TSZ (hTNF-α, SM-164, Z-VAD-FMK) 20 hours; 10 concentration points; read-out: EC50 intervals of necroptosis inhibition in U937 cells. A digest of the protocol: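 Luminescent ATP readout (CellTiter-Glo) after 20 h gave viability of TSZ-challenged U937 cells; compounds were added 15 min ahead of TNF-α/SM-164/Z-VAD-FMK. EC50 derived by variable-slope nonlinear regression of inhibition relative to no-TSZ and TSZ-alone controls.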
Background: ATP-based viability assays read luminescence as a measure of living cells.

`C[C@@H](NC(=O)C(=O)N[C@H]1COc2ccc(C#CCCO)cc2N(C)C1=O)c1ccccc1` [Example 125, N^1-((S)-7-(4-hydroxybut-1-yn-1-yl)-5-methyl-4-oxo-2,3,4,5-tetrahydrobenzo[b][1,4]oxazepin-3-yl)-N^2-((R)-1-phenylethyl)oxalamide]: at RIPK1 kinase, the 50% inhibitory concentration (IC50) is less than 100 nM. Moreover, the “Inhibition rate range of compounds (1 μM) on U937 cell necroptosis” value with U937 cells [1] is “A (A: ≥90%)”. Moreover, the EC50 in the assay on U937 cells [2] was less than 100 nM.
